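Grown in 96-well plates, cells were treated for 48 hours with each compound at five concentrations. Insufficient inhibition: endpoint recorded as highest concentration tested. Abbreviation: GI50, concentration required for 50% inhibition of growth.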 Active and inactive are the calls of the source. Rule as the data show it: active = GI50 up to about 1.1 µM and inactive = higher.
Assays:
Assay in all cases: DTP human tumour cell line panel, 48 h
MOLT-4 = system: MOLT-4
786-0 = system: 786-0
U-251 = system: U-251
SF-295 = system: SF-295
M14 = system: M14
SN12C = system: SN12C
SNB-78 = system: SNB-78
RPMI-8226 = system: RPMI-8226
UACC-62 = system: UACC-62
SK-MEL-28 = system: SK-MEL-28
NCI-H522 = system: NCI-H522
OVCAR-4 = system: OVCAR-4
OVCAR-3 = system: OVCAR-3
HCT-15 = system: HCT-15
Malme-3M = system: Malme-3M
KM-20L2 = system: KM-20L2
HCC 2998 = system: HCC 2998
NCI-H460 = system: NCI-H460
NCI-H226 = system: NCI-H226
COLO 205 = system: COLO 205
KM12 = system: KM12
DMS-114 = system: DMS-114
A498 = system: A498
IGROV-1 = system: IGROV-1
TK-10 = system: TK-10
HL-60 = system: HL-60
CAKI-1 = system: CAKI-1
HCT-116 = system: HCT-116
SK-MEL-5 = system: SK-MEL-5
SR = system: SR
CCRF-CEM = system: CCRF-CEM
UO-31 = system: UO-31
OVCAR-5 = system: OVCAR-5
EKVX = system: EKVX
HOP-62 = system: HOP-62
HT-29 = system: HT-29
SK-OV-3 = system: SK-OV-3
SNB-75 = system: SNB-75
SNB-19 = system: SNB-19
NCI-H23 = system: NCI-H23
SF-539 = system: SF-539
SK-MEL-2 = system: SK-MEL-2
M19-MEL = system: M19-MEL
ACHN = system: ACHN
LOX IMVI = system: LOX IMVI
SW-620 = system: SW-620
OVCAR-8 = system: OVCAR-8
UACC-257 = system: UACC-257
K562 = system: K562
SF-268 = system: SF-268
RXF 393 = system: RXF 393
DMS-273 = system: DMS-273
A549 = system: A549
MDA-MB-231 = system: MDA-MB-231
DU-145 = system: DU-145
NCI/ADR-RES = system: NCI/ADR-RES
PC-3 = system: PC-3
MCF7 = system: MCF7
Hs-578T = system: Hs-578T
MDA-N = system: MDA-N
HOP-92 = system: HOP-92
T47D = system: T47D
BT-549 = system: BT-549
MDA-MB-435 = system: MDA-MB-435

`O=C(OC1CCC2OOC1O2)c1ccc([N+](=O)[O-])cc1` (configuration not stated) was tested, and the GI50 (MOLT-4) was > 100 µM (inactive), the GI50 (786-0) was > 100 µM (inactive) and the GI50 (U-251) was > 100 µM (inactive). For the same molecule, the GI50 (SF-295) was > 100 µM (inactive), the GI50 (M14) was > 100 µM (inactive) and the GI50 (SN12C) was > 100 µM (inactive). For the same molecule, the GI50 (SNB-78) was > 100 µM (inactive), the GI50 (RPMI-8226) was > 100 µM (inactive) and the GI50 (UACC-62) was > 100 µM (inactive). The GI50 (SK-MEL-28) was > 100 µM (inactive), the GI50 (NCI-H522) was > 100 µM (inactive) and the GI50 (OVCAR-4) was > 100 µM (inactive). For the same molecule, the GI50 (OVCAR-3) was > 100 µM (inactive), the GI50 (HCT-15) was over 100 µM and the GI50 (Malme-3M) was > 100 µM (inactive). For the same molecule, the GI50 (KM-20L2) was > 100 µM (inactive), the GI50 (HCC 2998) was > 100 µM (inactive) and the GI50 (NCI-H460) was > 100 µM (inactive). For the same molecule, the GI50 (NCI-H226) was > 100 µM (inactive), the GI50 (COLO 205) was > 100 µM (inactive) and the GI50 (KM12) was > 100 µM (inactive). The GI50 (DMS-114) was > 100 µM (inactive), the GI50 (A498) was > 100 µM (inactive) and the GI50 (IGROV-1) was > 100 µM (inactive). For the same molecule, the GI50 (TK-10) was > 100 µM (inactive), the GI50 (HL-60) was > 100 µM (inactive) and the GI50 (CAKI-1) was > 100 µM (inactive). The GI50 (HCT-116) was > 100 µM (inactive), the GI50 (SK-MEL-5) was > 100 µM (inactive) and the GI50 (SR) was > 100 µM (inactive). The GI50 (CCRF-CEM) was > 100 µM (inactive), the GI50 (UO-31) was > 100 µM (inactive) and the GI50 (OVCAR-5) was > 100 µM (inactive). For the same molecule, the GI50 (EKVX) was > 100 µM (inactive), the GI50 (HOP-62) was > 100 µM (inactive) and the GI50 (HT-29) was > 100 µM (inactive). For the same molecule, the GI50 (SK-OV-3) was > 100 µM (inactive), the GI50 (SNB-75) was > 100 µM (inactive) and the GI50 (SNB-19) was > 100 µM (inactive). The GI50 (NCI-H23) was > 100 µM (inactive), the GI50 (SF-539) was > 100 µM (inactive) and the GI50 (SK-MEL-2) was > 100 µM (inactive). The GI50 (M19-MEL) was > 100 µM (inactive), the GI50 (ACHN) was > 100 µM (inactive) and the GI50 (LOX IMVI) was > 100 µM (inactive). The GI50 (SW-620) was > 100 µM (inactive), the GI50 (OVCAR-8) was > 100 µM (inactive) and the GI50 (UACC-257) was > 100 µM (inactive). The GI50 (K562) was > 100 µM (inactive), the GI50 (SF-268) was > 100 µM (inactive) and the GI50 (RXF 393) was > 100 µM (inactive). For the same molecule, the GI50 (DMS-273) was > 100 µM (inactive) and the GI50 (A549) was > 100 µM (inactive).

`COc1cc(Nc2nc3ccccc3nc2C(C)C)cc(OC)c1OC` was tested, and the GI50 (MDA-MB-231) was > 100 µM (inactive), the GI50 (DU-145) was > 100 µM (inactive) and the GI50 (MOLT-4) was > 100 µM (inactive). The GI50 (NCI/ADR-RES) was 68.4 µM (inactive), the GI50 (786-0) was > 100 µM (inactive) and the GI50 (U-251) was > 100 µM (inactive). For the same molecule, the GI50 (PC-3) was > 100 µM (inactive), the GI50 (SF-295) was 82.8 µM (inactive) and the GI50 (M14) was > 100 µM (inactive). For the same molecule, the GI50 (SN12C) was > 100 µM (inactive), the GI50 (RPMI-8226) was 83.2 µM (inactive) and the GI50 (UACC-62) was > 100 µM (inactive). The GI50 (SK-MEL-28) was > 100 µM (inactive), the GI50 (NCI-H522) was 81.7 µM (inactive) and the GI50 (OVCAR-4) was > 100 µM (inactive). The GI50 (MCF7) was > 100 µM (inactive), the GI50 (OVCAR-3) was > 100 µM (inactive) and the GI50 (HCT-15) was 90.4 µM. The GI50 (Malme-3M) was > 100 µM (inactive), the GI50 (HCC 2998) was > 100 µM (inactive) and the GI50 (NCI-H460) was > 100 µM (inactive). For the same molecule, the GI50 (NCI-H226) was > 100 µM (inactive), the GI50 (COLO 205) was > 100 µM (inactive) and the GI50 (KM12) was > 100 µM (inactive). For the same molecule, the GI50 (A498) was > 100 µM (inactive), the GI50 (IGROV-1) was > 100 µM (inactive) and the GI50 (TK-10) was > 100 µM (inactive). The GI50 (HL-60) was > 100 µM (inactive), the GI50 (CAKI-1) was > 100 µM (inactive) and the GI50 (HCT-116) was > 100 µM (inactive). For the same molecule, the GI50 (Hs-578T) was > 100 µM (inactive), the GI50 (SK-MEL-5) was > 100 µM (inactive) and the GI50 (MDA-N) was > 100 µM (inactive). For the same molecule, the GI50 (SR) was > 100 µM (inactive), the GI50 (HOP-92) was 34 µM (inactive) and the GI50 (T47D) was > 100 µM (inactive). The GI50 (CCRF-CEM) was > 100 µM (inactive), the GI50 (BT-549) was > 100 µM (inactive) and the GI50 (UO-31) was > 100 µM (inactive). The GI50 (OVCAR-5) was > 100 µM (inactive), the GI50 (EKVX) was 42.7 µM (inactive) and the GI50 (MDA-MB-435) was > 100 µM (inactive). The GI50 (HOP-62) was > 100 µM (inactive), the GI50 (HT-29) was 36.4 µM (inactive) and the GI50 (SK-OV-3) was > 100 µM (inactive). For the same molecule, the GI50 (SNB-75) was > 100 µM (inactive), the GI50 (SNB-19) was > 100 µM (inactive) and the GI50 (NCI-H23) was > 100 µM (inactive). The GI50 (SF-539) was > 100 µM (inactive), the GI50 (SK-MEL-2) was > 100 µM (inactive) and the GI50 (ACHN) was > 100 µM (inactive). For the same molecule, the GI50 (LOX IMVI) was > 100 µM (inactive), the GI50 (SW-620) was > 100 µM (inactive) and the GI50 (OVCAR-8) was 73.3 µM (inactive). For the same molecule, the GI50 (UACC-257) was > 100 µM (inactive), the GI50 (K562) was > 100 µM (inactive) and the GI50 (SF-268) was > 100 µM (inactive). The GI50 (RXF 393) was > 100 µM (inactive) and the GI50 (A549) was > 100 µM (inactive).
